Experimental data as given in US20100022483A1, “Substituted Tetracycline Compounds” (Paratek Pharmaceuticals, Inc., priority 2008, published 2010).
In brackets after ≈: the same amount, converted by molar mass. Where two headings read alike, the source gives them in different places.

What was measured:
gram positive bacteria = experiment: In vitro anti-bacterial activity assay (broth dilution MIC), gram positive bacteria; assay type: cell-based, S. aureus; conditions: 18 h
Description: (§1) Bacterial infections may be caused by a wide variety of gram positive and gram negative bacteria. Some of the compounds of the invention are useful as antibiotics against organisms which are resistant and/or sensitive to other tetracycline compounds. The antibiotic activity of the tetracycline compounds of the invention may by using the in vitro standard broth dilution method described in Waitz, J. A., CLSI, Document M7-A2, vol. 10, no. 8, pp. 13-20, 2nd edition, Villanova, Pa. (1990).
(§2) The following assay was used to determine the efficacy of the tetracycline compounds against gram positive and gram negative bacteria. 2 mg of each compound was dissolved in 100 μl of DMSO. […] The tetracycline compound solutions were diluted to 50 μL volumes, with a test compound concentration of 0.098 μg/ml. Optical density (OD) determinations were made from fresh log-phase broth cultures of the test strains. Dilutions were made to achieve a final cell density of […] CFU/ml. At OD=1, cell densities for different genera were approximately:
(§3) 50 μl of the cell suspensions were added to each well of microtiter plates. The final cell density was approximately 5×10^5 CFU/ml. These plates were incubated at 35° C. in an ambient air incubator for approximately 18 hours. The plates were read with a microplate reader and were visually inspected when necessary. The MIC was defined as the lowest concentration of the tetracycline compound that inhibits growth. Table 3 includes MIC data for several substituted tetracycline compounds.

in vitro = assay type: cell-based; conditions: Chinese hamster, Cytotox. CHO-K1
Procedure: (§4) COS-1 and CHO-K1 cell suspensions were prepared, seeded into 96-well tissue culture treated black-walled microtiter plates (density determined by cell line), and incubated overnight at 37° C., in 5% CO2 and approximately 95% humidity. The following day, serial dilutions of compound were prepared under sterile conditions and transferred to cell plates. Cell/Compound plates were incubated under the above conditions for 24 hours. Following the incubation period, media/compound was aspirated and 50 μl of resazurin (0.042 mg/ml in PBS w/Ca and Mg) is added. The plates were then incubated under the above conditions for 2 hours and then placed in the dark at room temperature for an additional 30 minutes. Fluorescence measurements were taken (excitation 535 nm, emission 590 nm). The IC50 (concentration of compound causing 50% growth inhibition) was then calculated. Table 3 includes IC50 data for several substituted tetracycline compounds.

[1] = Mammalian cytotoxicity assay (resazurin), COS-1 cells; assay type: cell-based; conditions: African green monkey, read-out: Cytotox. COS-1
Procedure: as §4

gram negative bacteria = experiment: In vitro anti-bacterial activity assay (broth dilution MIC), gram negative bacteria; assay type: cell-based, E. coli
Description: as §1, §2, §3

3T3 fibroblast cells = experiment: In vitro phototoxicity assay (neutral red; UV light-treated vs dark control plates); assay type: cell-based; conditions: for Photo Toxicity UV Tox50: UV light 50 minutes; for Photo Toxicity Dark Tox50: dark control plate
Procedure: 3T3 fibroblast cells were harvested and plated at a concentration of 1×10^5 cells/mL and the plates were incubated overnight at 37° C., in 5% CO2 and approximately 95% humidity. On the following day the medium was removed from the plates and replaced with Hanks' Balanced Salt Solution (HBSS). Compound dilutions were made in HBSS and added to the plates. For each compound tested, a duplicate plate was prepared that was not exposed to light as a control for compound toxicity. Plates were then incubated in a dark drawer (for controls), or under UV light (meter reading of 1.6-1.8 mW/cm^2) for 50 minutes. Cells were then washed with HBSS, fresh medium was added, and plates were incubated overnight as described above. The following day neutral red was added as an indicator of cell viability. The plates were then incubated for an additional 3 hours. Cells were then washed with HBSS and blotted on absorbent paper to remove excess liquid. A solution of 50% EtOH, 10% glacial acetic acid was added and after 20 minutes incubation the plate's absorbance at 535 nm was read using a Wallac Victor 5 spectrophotometer. The phototoxicity reflected the difference between the light-treated and control cultures. Table 3 includes phototoxicity (μM) data for several substituted tetracycline compounds.

[2] = Staphylococcus aureus, S. aureus MRSA5, read-out: Median MIC's G+ S. aureus MRSA5
[3] = Staphylococcus aureus, S. aureus RN450, read-out: Median MIC's G+ S. aureus RN450
[4] = Streptococcus pneumoniae, S. pneumoniae 157E-Strep, read-out: Median MIC's G+ S. pneumoniae 157E-Strep
[5] = Escherichia coli, 18 h, E. coli D1 209, read-out: Median MIC's G− E. coli D1 209
[6] = Escherichia coli, 18 h, E. coli MG 1655, read-out: Median MIC's G− E. coli MG 1655
[7] = Escherichia coli, ATCC25922, 18 h, E. coli ATCC 25922, read-out: Median MIC's G− E. coli ATCC 25922
[8] = Pseudomonas aeruginosa, 18 h, P. aeruginosa K201 PAO6609, read-out: Median MIC's G− P. aeruginosa K201 PAO6609

Structure (SMILES)	MIC (gram positive bacteria; [2])	MIC (gram positive bacteria; [3])	MIC (gram positive bacteria; [4])	IC50 at 24 h (in vitro)	IC50 at 24 h [1]	MIC (gram negative bacteria; [5])	MIC (gram negative bacteria; [6])	MIC (gram negative bacteria; [7])	MIC (gram negative bacteria; [8])	Photo Toxicity UV Tox50 (3T3 fibroblast cells)	Photo Toxicity Dark Tox50 (3T3 fibroblast cells)
CCN(CC)CCCC(C)NC(=O)c1ccc(O)c2c1C[C@H]1C[C@H]3[C@H](N(C)C)C(O)=C(C(N)=O)C(=O)[C@@]3(O)C(O)=C1C2=O (some centres unmarked) [AI]	64 µg/mL (≈ 107 µM)	64 µg/mL (≈ 107 µM)	64 µg/mL (≈ 107 µM)	> 109 µM	> 109 µM	64 µg/mL (≈ 107 µM)	64 µg/mL (≈ 107 µM)	64 µg/mL (≈ 107 µM)	64 µg/mL (≈ 107 µM)	>108.86 µM	>108.86 µM
CC(C)N(C)CC(=O)c1ccc(O)c2c1C[C@H]1C[C@H]3[C@H](N(C)C)C(O)=C(C(N)=O)C(=O)[C@@]3(O)C(O)=C1C2=O [AJ]	0.5 µg/mL (≈ 0.948 µM)	0.06 µg/mL (≈ 0.114 µM)	0.06 µg/mL (≈ 0.114 µM)	> 150 µM	> 150 µM	1 µg/mL (≈ 1.9 µM)	0.25 µg/mL (≈ 0.474 µM)	0.25 µg/mL (≈ 0.474 µM)	32 µg/mL (≈ 60.7 µM)	>149.87 µM	>149.87 µM
COC(=O)C1CCN(Cc2ccc(O)c3c2C[C@H]2C[C@H]4[C@H](N(C)C)C(O)=C(C(N)=O)C(=O)[C@@]4(O)C(O)=C2C3=O)CC1 [AK]	2 µg/mL (≈ 3.51 µM)	0.06 µg/mL (≈ 0.105 µM)	0.06 µg/mL (≈ 0.105 µM)	> 140 µM	> 140 µM	4 µg/mL (≈ 7.02 µM)	0.5 µg/mL (≈ 0.878 µM)	0.25 µg/mL (≈ 0.439 µM)	64 µg/mL (≈ 112 µM)	>140.07 µM	>140.07 µM
CN(C)CC(=O)N1CC=C(c2ccc(O)c3c2C[C@H]2C[C@H]4[C@H](N(C)C)C(O)=C(C(N)=O)C(=O)[C@@]4(O)C(O)=C2C3=O)CC1 [AL]	32 µg/mL (≈ 55.1 µM)	0.5 µg/mL (≈ 0.861 µM)	0.5 µg/mL (≈ 0.861 µM)	> 145 µM	> 145 µM	64 µg/mL (≈ 110 µM)	16 µg/mL (≈ 27.6 µM)	16 µg/mL (≈ 27.6 µM)	64 µg/mL (≈ 110 µM)	>145.35 µM	>145.35 µM
CC(=O)Nc1cccc(-c2ccc(O)c3c2C[C@H]2C[C@H]4[C@H](N(C)C)C(O)=C(C(N)=O)C(=O)[C@@]4(O)C(O)=C2C3=O)c1 [AO]	4 µg/mL (≈ 7.31 µM)	0.06 µg/mL (≈ 0.11 µM)	0.06 µg/mL (≈ 0.11 µM)	> 16.3 µM	> 16.3 µM	64 µg/mL (≈ 117 µM)	32 µg/mL (≈ 58.4 µM)	4 µg/mL (≈ 7.31 µM)	64 µg/mL (≈ 117 µM)	>162.66 µM	>162.66 µM
COc1ccc(CN(C)C)cc1-c1ccc(O)c2c1C[C@H]1C[C@H]3[C@H](N(C)C)C(O)=C(C(N)=O)C(=O)[C@@]3(O)C(O)=C1C2=O [AT]	0.5 µg/mL (≈ 0.866 µM)	0.06 µg/mL (≈ 0.104 µM)	0.06 µg/mL (≈ 0.104 µM)	> 146 µM	> 146 µM	1 µg/mL (≈ 1.73 µM)	1 µg/mL (≈ 1.73 µM)	0.5 µg/mL (≈ 0.866 µM)	64 µg/mL (≈ 111 µM)	>146.03 µM	>146.03 µM
CN(C)CCC(=O)c1ccc(O)c2c1C[C@H]1C[C@H]3[C@H](N(C)C)C(O)=C(C(N)=O)C(=O)[C@@]3(O)C(O)=C1C2=O [AV]	0.5 µg/mL (≈ 0.974 µM)	0.06 µg/mL (≈ 0.117 µM)	0.5 µg/mL (≈ 0.974 µM)	> 153 µM	> 153 µM	64 µg/mL (≈ 125 µM)	16 µg/mL (≈ 31.2 µM)	8 µg/mL (≈ 15.6 µM)	64 µg/mL (≈ 125 µM)	>153.46 µM	>153.46 µM
